One series addresses T1, human CB2 receptors (Homo sapiens, UniProt P34972).
T1 construct: expressed in transfected cells; host or cells: CHO cells
As to the kind of experiment: Cannabinoid receptor [3H]CP-55,940 displacement binding assay, CB2. The method, then: (§1) The affinities of the compounds for CB1 and CB2 receptors were examined using displacement assays, as previously described. Briefly, cell membranes from CHO cells expressing human CB1 or human CB2 receptors were isolated using differential centrifugation. Test compounds reconstituted in DMSO and were incubated with the isolated membrane in binding buffer (50 mM Tris-HCl, 1 mM EDTA, 3 mM MgCl2, 5 mg/mL BSA, pH 7.4) along with 2.5 nM [^3H]CP-55,940. Total binding was assessed in the presence of equal concentration of DMSO, while non-specific binding was determined in the presence of 10 μM CP-55,940, and background binding was determined in wells lacking membrane. Following incubation at 30 °C for 60 min, the binding reactions were terminated by vacuum filtration through Whatman GF/C filters. The filters were then washed twice with ice-cold buffer (50 mM Tris-HCl, 1 mg/mL BSA). Liquid scintillation cocktail was added to each well and the total tritiated counts per minute were analyzed using a TopCount scintillation counter. Background counts were subtracted from all wells and the percent displacement from total binding was calculated.
(§2) The compounds were initially screened at 10 μM concentrations. If they produced at least ±30% displacement of the radioligand, then full competition curves were constructed. Ki values were calculated using GraphPad Prism (San Diego, CA, USA) and Kd values determined using a 1 site fit. All assays were run in technical and biological replicates so that the n = 5–6.

The target in a further series is T2, human CB1 receptors (Homo sapiens, UniProt P21554).
T2 construct: expressed in transfected cells; host or cells: CHO cells
As to the kind of experiment: Cannabinoid receptor [3H]CP-55,940 displacement binding assay, CB1. The settings on record: 1 h; 10 µM compound; CHO cell membranes, 2.5 nM radioligand; read-out: Displacement of [3H]CP-55,940 from CB1. The method, then:
as §1, §2
(In a radioligand displacement assay an active substance lowers the binding of a labelled ligand.)

Series [1] is described as follows: Stability studies under physiological pH. The format is physicochemical. The following applies: 4k compared to 4q, data not reported.

What is called Ki is the equilibrium dissociation constant of an inhibitor or competing ligand from its target.

T1 sequence (P34972 whole entry): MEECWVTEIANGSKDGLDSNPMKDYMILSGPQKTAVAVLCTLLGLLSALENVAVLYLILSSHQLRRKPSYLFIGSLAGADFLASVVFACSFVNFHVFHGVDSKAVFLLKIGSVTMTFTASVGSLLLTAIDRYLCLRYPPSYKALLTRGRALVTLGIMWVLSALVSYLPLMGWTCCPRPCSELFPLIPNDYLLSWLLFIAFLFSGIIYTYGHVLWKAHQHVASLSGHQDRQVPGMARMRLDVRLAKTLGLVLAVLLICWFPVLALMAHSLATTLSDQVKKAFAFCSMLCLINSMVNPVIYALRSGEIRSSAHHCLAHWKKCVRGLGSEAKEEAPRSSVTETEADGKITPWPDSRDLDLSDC
T2 sequence (P21554 whole entry): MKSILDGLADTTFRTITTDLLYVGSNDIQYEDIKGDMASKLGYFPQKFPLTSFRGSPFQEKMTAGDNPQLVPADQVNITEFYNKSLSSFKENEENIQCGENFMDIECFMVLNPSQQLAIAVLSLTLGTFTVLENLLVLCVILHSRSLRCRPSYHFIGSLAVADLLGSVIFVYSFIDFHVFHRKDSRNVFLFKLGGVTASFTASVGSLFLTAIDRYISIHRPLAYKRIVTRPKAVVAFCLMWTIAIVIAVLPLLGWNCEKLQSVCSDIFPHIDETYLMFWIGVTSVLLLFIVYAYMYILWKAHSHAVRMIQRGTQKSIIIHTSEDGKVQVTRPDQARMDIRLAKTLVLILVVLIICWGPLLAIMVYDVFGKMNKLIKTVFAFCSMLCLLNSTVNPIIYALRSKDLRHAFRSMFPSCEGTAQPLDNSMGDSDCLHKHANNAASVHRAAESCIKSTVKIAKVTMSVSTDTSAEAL

As to `O=C1c2ccc(Cl)cc2N/C(=N/N=C/c2cc3ccccc3s2)[C@@H]2CCCN12` [Compound 4k], the inhibition at 10 µM on human CB2 receptors (1 h, 10 µM compound, CHO cell membranes, 2.5 nM radioligand, read-out: Displacement of [3H]CP-55,940 from CB2) worked out at 84.6%; at human CB1 receptors, 41.3%. Also, at human CB2 receptors (CB2, full competition curves vs [3H]CP-55,940), affinity was put at a Ki of 0.146 µM. For the same molecule, the “tolerance under physiological pH (stability)” value in series [1] is on record as “better tolerance”.

(Values after PMC8778670, “Identification of an Orally Bioavailable, Brain-Penetrant Compound with Selectivity for the Cannabinoid Type 2 Receptor” (Molecules, 2022).)
